Data from the OligoGym collection.
Values joined by “and” are separate entries in the source; they are usually repeats but may differ in a detail not shown here. Equal entries are not always repeated. After the bases stand the sugars from the 5' end (letter, count) and the backbone: PS all phosphorothioate, else s phosphorothioate and o phosphodiester by linkage. Methylation of C is not given here. k = constrained ethyl (cEt); d = 2'-deoxy (DNA)

Biological target: MALAT1
Conditions: ASO, A431, 0.005 µM

Sequence | target mRNA inhibition
GCTCACAAGGCAAATC (sugars k3 d10 k3, PS) | -4%
GCTCCTGACAAATTAT (sugars k3 d10 k3, PS) | 17%
GCTGAAATCTATTCAA (sugars k3 d10 k3, PS) | -159%
GCTGAACTATCACAAT (sugars k3 d10 k3, PS) | 27%
GCTGTCAATTAATGCT (sugars k3 d10 k3, PS) | 24%
GCTGTCTTCCTAGATT (sugars k3 d10 k3, PS) | 36%
GCTTTGTTGTCTCTCC (sugars k3 d10 k3, PS) | 93% and 97%
GGAAAGCGAGTTCAAG (sugars k3 d10 k3, PS) | 24%
GGAATGGCCAGCCTAT (sugars k3 d10 k3, PS) | 17%
GGAATTCGATCACCTT (sugars k3 d10 k3, PS) | 29%
GGAGAGGCCAGTTGCG (sugars k3 d10 k3, PS) | -10%
GGATCATTAAGCCACT (sugars k3 d10 k3, PS) | 15%
GGATCCTCTACGCACA (sugars k3 d10 k3, PS) | 19%
GGCAAAATGGCGGACT (sugars k3 d10 k3, PS) | -14%
GGCAAACGAAACATTG (sugars k3 d10 k3, PS) | 35%
GGCCAAGTCTGTTATG (sugars k3 d10 k3, PS) | -1%
GGCCAGCCTATAAGGA (sugars k3 d10 k3, PS) | 6%
GGCCTACTCAAGCTCT (sugars k3 d10 k3, PS) | 14%
GGCTCATATTTAACTT (sugars k3 d10 k3, PS) | 20%
GGGTACTTCAAGCATT (sugars k3 d10 k3, PS) | 43%
GGTTTTAGTCACTGGA (sugars k3 d10 k3, PS) | 85% and 95%
GGTTTTATCTAAATAC (sugars k3 d10 k3, PS) | 25%
GTAACAGGCCACTGCC (sugars k3 d10 k3, PS) | 14%

Sequence | target mRNA inhibition
GTAATTACTCTTGATC (sugars k3 d10 k3, PS) | 47%
GTACACCCAGTGGCTC (sugars k3 d10 k3, PS) | 6%
GTACTATAGCATCTGT (sugars k3 d10 k3, PS) | 45%
GTACTATCCCATCACT (sugars k3 d10 k3, PS) | 33%
GTAGACCAACTAAGCG (sugars k3 d10 k3, PS) | 26%
GTAGTAAGAATCTCAG (sugars k3 d10 k3, PS) | 80% and 71%
GTAGTTGTATTAATCT (sugars k3 d10 k3, PS) | 68% and 65%
GTATGACATATAATCT (sugars k3 d10 k3, PS) | 55% and 77%
GTCAATAGTACTATAG (sugars k3 d10 k3, PS) | 58% and 42%
GTCAATTAATGCTAGT (sugars k3 d10 k3, PS) | 41%
GTCAGGGACACACCCA (sugars k3 d10 k3, PS) | -11%
GTCTCCGAAGACACAG (sugars k3 d10 k3, PS) | -5%
GTCTGAAGAATACCAT (sugars k3 d10 k3, PS) | 47%
GTGGAAAGATTTGAGC (sugars k3 d10 k3, PS) | 17%
GTGGTTATAGCTTGAC (sugars k3 d10 k3, PS) | 79% and 93%
GTGTTCGCAGACAAAG (sugars k3 d10 k3, PS) | 10%
GTGTTTACACTGCTCT (sugars k3 d10 k3, PS) | 6%
GTTAACTAGGCTTTAA (sugars k3 d10 k3, PS) | 23%
GTTACCAATAATTTCC (sugars k3 d10 k3, PS) | 71% and 50%
GTTACTTGCCAACTTG (sugars k3 d10 k3, PS) | 63% and 81%
GTTAGGTATGAGCTTC (sugars k3 d10 k3, PS) | 15%
GTTCAACCCACCAAAG (sugars k3 d10 k3, PS) | 36%
GTTCAAGTGGCCTTTT (sugars k3 d10 k3, PS) | 22%

Sequence | target mRNA inhibition
GTTCGAGAAATCGGAG (sugars k3 d10 k3, PS) | 15%
GTTGAGAAGTGGCAAA (sugars k3 d10 k3, PS) | 20%
GTTGATATTTAAGAAC (sugars k3 d10 k3, PS) | -15%
GTTTACCACCTTTTGA (sugars k3 d10 k3, PS) | 3%
GTTTCCTAGCTTGTCT (sugars k3 d10 k3, PS) | 57%
TAAAGTAGACCAACTA (sugars k3 d10 k3, PS) | 14%
TAAATAAGGAGACAGC (sugars k3 d10 k3, PS) | 38%
TAAATTGGTTCTGGTC (sugars k3 d10 k3, PS) | 49%
TAACCAACTTCCCCTT (sugars k3 d10 k3, PS) | 16%
TAACTAGGCTTTAAAT (sugars k3 d10 k3, PS) | 14%
TAAGCGAATGGCTTTG (sugars k3 d10 k3, PS) | 7%
TAAGGACAGCTAAGAT (sugars k3 d10 k3, PS) | 24%
TAAGTTGGTTTTAGTC (sugars k3 d10 k3, PS) | 78% and 92%
TAATCTCCCACCTGTC (sugars k3 d10 k3, PS) | 7%
TAATGGTTTTCTACAC (sugars k3 d10 k3, PS) | 40%
TAATGTAGTGTAACAT (sugars k3 d10 k3, PS) | 29%
TAATGTCAGCCCAGTA (sugars k3 d10 k3, PS) | 7%
TACACCCAGTGGCTCA (sugars k3 d10 k3, PS) | 30%
TACACCTCAGTACGAA (sugars k3 d10 k3, PS) | 28%
TACATGTTCCCACCCA (sugars k3 d10 k3, PS) | 39%
TACCGCACAGCTCGGG (sugars k3 d10 k3, PS) | 20%
TACCTTAACATCTTGT (sugars k3 d10 k3, PS) | 14%
TACGAAACTCCCCCAT (sugars k3 d10 k3, PS) | 6%

Sequence | target mRNA inhibition
TACGAAAGTCCTTCAC (sugars k3 d10 k3, PS) | 35%
TACGACTGCTTAAAAC (sugars k3 d10 k3, PS) | 5%
TACTATATTTAAGGCC (sugars k3 d10 k3, PS) | 1%
TACTATCCCATCACTG (sugars k3 d10 k3, PS) | 42%
TACTCCATGAAGAAGC (sugars k3 d10 k3, PS) | -26%
TACTCTAATCACTGTC (sugars k3 d10 k3, PS) | 15%
TACTGAAGAGCATTGG (sugars k3 d10 k3, PS) | 71%
TACTTAAATTACTAGC (sugars k3 d10 k3, PS) | 28%
TAGACCAACTAAGCGA (sugars k3 d10 k3, PS) | -9%
TAGAGAAGAATCCCCC (sugars k3 d10 k3, PS) | 34%
TAGAGGGCCTCTATTG (sugars k3 d10 k3, PS) | 39%
TAGCAGCGGGATCAGA (sugars k3 d10 k3, PS) | 32%
TAGCTTGACAAGCAAT (sugars k3 d10 k3, PS) | 12%
TAGCTTGGCCAAGTCT (sugars k3 d10 k3, PS) | 19%
TAGGATCCTCTACGCA (sugars k3 d10 k3, PS) | 23%
TAGGCTTTAAATGACG (sugars k3 d10 k3, PS) | 26%
TAGGTATGAGCTTCAG (sugars k3 d10 k3, PS) | 4%
TAGTACTATAGCATCT (sugars k3 d10 k3, PS) | 49%
TAGTGTAAAACATTGC (sugars k3 d10 k3, PS) | 35%
TAGTTCTTCGGTTAAA (sugars k3 d10 k3, PS) | 6%
TATAAGGTCAATAGTG (sugars k3 d10 k3, PS) | 38%
TATACTTCTCCAATAC (sugars k3 d10 k3, PS) | 18%
TATAGCTTGACAAGCA (sugars k3 d10 k3, PS) | 19%

Sequence | target mRNA inhibition
TATCCTGATATTGGAT (sugars k3 d10 k3, PS) | 24%
TATCTTAGTAACCTAT (sugars k3 d10 k3, PS) | 21%
TATTCCAGGATTAATG (sugars k3 d10 k3, PS) | 29%
TATTGGTATTAATTCG (sugars k3 d10 k3, PS) | 13%
TATTTAAGAACTCCAC (sugars k3 d10 k3, PS) | 26%
TATTTAGAGGGCCTCT (sugars k3 d10 k3, PS) | 34%
TATTTCGGCTTCTTTT (sugars k3 d10 k3, PS) | 47% and 65%
TATTTTAAACGGGTCA (sugars k3 d10 k3, PS) | 3%
TCAAAATCCTGAATGG (sugars k3 d10 k3, PS) | 38%
TCAAACTAAGCTACTA (sugars k3 d10 k3, PS) | -1%
TCAAGGATGTATATAG (sugars k3 d10 k3, PS) | 6%
TCAAGTCAAGCTCCTG (sugars k3 d10 k3, PS) | 3%
TCACCAAATTGCACTC (sugars k3 d10 k3, PS) | 21%
TCACCGGAATTCGATC (sugars k3 d10 k3, PS) | -263%
TCACGGATTTTTACCA (sugars k3 d10 k3, PS) | 28%
TCACTGCAAGGTCTCA (sugars k3 d10 k3, PS) | 48%
TCAGACAAGATTCATG (sugars k3 d10 k3, PS) | 31%
TCAGCCTTTATCACTC (sugars k3 d10 k3, PS) | 13%
TCAGTACGAAACTCCC (sugars k3 d10 k3, PS) | 41%
TCATCCTACCACTCCC (sugars k3 d10 k3, PS) | 34%
TCATGGATTTCAAGGT (sugars k3 d10 k3, PS) | 51%
TCCAGCATAAAGCTGA (sugars k3 d10 k3, PS) | -9%
